Data set [1] concerns the target T1, human serum albumin (HSA) (Homo sapiens, UniProt P02768).
T1 construct: purchased Daicel Chemical Industries CHIRALPAK HSA, column-batch H13L-2405
In words: Plasma protein binding using bioaffinity chromatography (CHIRALPAK HSA). Format: in vitro ADME. The note with it: human; bioaffinity chromatography on HSA stationary phase; read-out: Plasma protein binding (%PPB) / Binding to human serum albumin (converted). On the procedure: The binding of (±)-SNAP-7941 and FE@SNAP to human serum albumin (HSA) was examined by bioaffinity chromatography according to a previously published manuscript. In short, the analytes were diluted in 2-propanol and ammonium acetate buffer (0.5 mg/ml) and injected on the CHIRALPAK®HSA stationary phase (50 × 3 mm, 5 μm pore size, column-batch: H13L-2405, Daicel Chemical Industries, West Chester, PA, USA). Prior the experiments, the column was calibrated with reference standards, and the resulting regression equation was used to convert the logarithmic capacity factors (log(k′)) to the percent of plasma protein binding (%PPB). The calibration curves, as well as the experiments, were performed by triplicate injections and at least three times.

On the set-up of data set [2]: method as in PMID 23829932, PMID 24106662, PMID 27033361. The following applies: result in words, not determined in this paper for this tracer; cited from earlier work.
The test system of the next data set is P-gp/BCRP. The data set can be described thus: Small animal PET of mouse brain, vehicle vs pretreatment with P-gp/BCRP inhibitor TQD. It counts as in vivo. The following applies: mice, TQD 15 mg/kg 30 min before radiotracer. On the procedure:
Ten-week-old male rats (412 ± 58 g, Sprague-Dawley, HIM:OFA, n = 30) and 12-week-old male mice (24 ± 6 g, BALB/cAnNRj, n = 7) were purchased from the Division of Laboratory Animal Science and Genetics, Himberg, Austria. Animals were kept under conventional housing conditions (22 ± 1 °C; 40–70 % humidity) with food and water supply ad libitum and 12-h day/night cycle. All animals were treated according to the European Union rules on animal care and respective animal experiments were approved by the Austrian Ministry of Sciences, Research and Economy (BMWFW-66.009/0029-WF/V/3b/20159). For in vivo imaging, animals were anesthetized using 1.5–2 % isoflurane mixed with oxygen (1.5–2 l/min) to avoid movement during the examination. Anesthesia as well as vital parameters were monitored during the time interval of PET acquisition. Radioligands and non-labeled compounds were administered intravenously via the lateral tail vein.
Anesthetized rats and mice were immobilized in a multimodal animal carrier unit (MACU; medres®—medical research GmbH, Cologne, Germany). The body temperature was preserved at 37 °C throughout the whole experiment. […]

Data set [3] can be described thus: Ex vivo metabolites in rat brain (radio-HPLC). The protocol: For the analysis of potential radiometabolites, blood samples (50–80 μl) from rats were withdrawn at 10 and 45 min for [^11C]SNAP-7941 and at 10, 30, and 60 min for [^18F]FE@SNAP and immediately subjected to the equivalent amount of acetonitrile, homogenized, and stored on ice before processing. Additionally, [^18F]FE@SNAP was administered to three rats, which were sacrificed after 45 min. Whole brains were harvested and homogenized with equivalent amounts (500–800 μl) of acetonitrile and 0.9 % saline solution using an ULTRA-TURRAX® (T25 basic, IKA Laboratory Equipment, Staufen, Germany). Subsequently, blood and brain were centrifuged (23,000 ×g, 4 min, 4 °C; Hettich Universal 30RF, Tuttlingen, Germany), and the obtained supernatant was analyzed by an analytical HPLC equipped with a radioactivity detector (radio-HPLC) (stationary phase: Chromolith® Performance RP-18e, 100–4.6 mm; precolumn: Chromolith® Guard Cartridge RP-18e, 5–4.6 mm; Merck, Darmstadt, Germany), mobile phase: (water/acetic acid 97.5/2.5 v/v; 2.5 g/l ammonium acetate; pH 3.5)/acetonitrile 70/30 v/v; flow: 1 ml/min, λ = 254 nm). The ratio between metabolite and intact radiotracer was calculated using quantitative HPLC analysis.

Like-named read-outs stand apart in the source and are kept apart here.

The text below walks through data of PMC6449294, “SNAPshots of the MCHR1: a Comparison Between the PET-Tracers [^18F]FE@SNAP and [^11C]SNAP-7941” (Molecular Imaging and Biology, 2018).

T1 sequence (P02768 25-609): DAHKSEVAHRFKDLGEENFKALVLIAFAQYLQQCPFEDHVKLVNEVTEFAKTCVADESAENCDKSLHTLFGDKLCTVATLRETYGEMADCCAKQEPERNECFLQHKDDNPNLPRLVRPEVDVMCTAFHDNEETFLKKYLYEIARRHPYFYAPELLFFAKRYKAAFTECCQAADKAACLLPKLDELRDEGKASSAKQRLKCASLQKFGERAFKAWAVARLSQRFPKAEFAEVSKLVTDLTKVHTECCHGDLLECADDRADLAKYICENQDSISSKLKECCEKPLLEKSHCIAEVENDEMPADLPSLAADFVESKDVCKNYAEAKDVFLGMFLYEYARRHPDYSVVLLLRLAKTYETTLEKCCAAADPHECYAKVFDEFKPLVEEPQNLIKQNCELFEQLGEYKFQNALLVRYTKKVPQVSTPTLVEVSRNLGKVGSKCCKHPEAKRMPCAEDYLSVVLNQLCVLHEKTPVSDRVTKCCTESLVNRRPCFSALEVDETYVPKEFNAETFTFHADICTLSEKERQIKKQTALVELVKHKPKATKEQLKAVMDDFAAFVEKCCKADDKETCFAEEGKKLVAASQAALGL

On to `COCC1=C(C(=O)O[11CH3])C(c2ccc(F)c(F)c2)N(C(=O)NCCCN2CCC(c3cccc(NC(C)=O)c3)CC2)C(=O)N1` (stereo not drawn) [[^11C]SNAP-7941], for which, in data set [1], the fraction unbound at 0.5 mg/ml is 0.2. The “Metabolism in rat brain” value in data set [2] is “Stable”.
Regarding `COCC1=C(C(=O)OCC[18F])C(c2ccc(F)c(F)c2)N(C(=O)NCCCN2CCC(c3cccc(NC(C)=O)c3)CC2)C(=O)N1` (stereo not drawn) [[^18F]FE@SNAP], the fraction unbound at 0.5 mg/ml in data set [1] was 0.23. Also, the “increase of brain uptake in TQD blocking group vs vehicle” value in the data set with P-gp/BCRP was found to be 1.93 fold. For the same compound, in data set [3] (45 min), the “intact tracer in rat brain” value amounted to 22.37 ± 5.8%. Besides, in data set [3] (ex vivo, result in words), the “Metabolism in rat brain” value was “Rapidly metabolized”.
